# According to US12304914B2, “Pyrazolo[3,4-d]pyrrolo[1,2-b]pyridazinyl compounds useful as IRAK4 inhibitors” (BRISTOL-MYERS SQUIBB COMPANY, priority 2019, dated 2025):
# Target: IRAK4 (Homo sapiens (Human), UniProt Q9NWZ3)
# Test: IRAK4 Inhibition Assay
# Type: biochemical
# Settings: ATP 500 μM; FL-peptide 1.5 μM; IRAK4 0.6 nM; 60 min room temperature; Caliper LABCHIP 3000
# Description: The assays were performed in U-bottom 384-well plates. The final assay volume was 30 μL prepared from 15 μL additions of enzyme and substrates (fluoresceinated peptide and ATP) and test compounds in assay buffer (20 mM HEPES pH 7.2, 10 mM MgCl2, 0.015% Brij 35 and 4 mM DTT). The reaction was initiated by the combination of IRAK4 with substrates and test compounds. The reaction mixture was incubated at room temperature for 60 min. and terminated by adding 45 μL of 35 mM EDTA to each sample. The reaction mixture was analyzed on the Caliper LABCHIP® 3000 (Caliper, Hopkinton, MA) by electrophoretic separation of the fluorescent substrate and phosphorylated product. Inhibition data were calculated by comparison to no enzyme control reactions for 100% inhibition and vehicle-only reactions for 0% inhibition. The final concentrations of reagents in the assays are ATP, 500 μM; FL-IPTSPITTTYFFFKKK peptide 1.5 μM; IRAK4, 0.6 nM; and DMSO, 1.6%.
# Sequence of IRAK4 (Q9NWZ3 whole entry): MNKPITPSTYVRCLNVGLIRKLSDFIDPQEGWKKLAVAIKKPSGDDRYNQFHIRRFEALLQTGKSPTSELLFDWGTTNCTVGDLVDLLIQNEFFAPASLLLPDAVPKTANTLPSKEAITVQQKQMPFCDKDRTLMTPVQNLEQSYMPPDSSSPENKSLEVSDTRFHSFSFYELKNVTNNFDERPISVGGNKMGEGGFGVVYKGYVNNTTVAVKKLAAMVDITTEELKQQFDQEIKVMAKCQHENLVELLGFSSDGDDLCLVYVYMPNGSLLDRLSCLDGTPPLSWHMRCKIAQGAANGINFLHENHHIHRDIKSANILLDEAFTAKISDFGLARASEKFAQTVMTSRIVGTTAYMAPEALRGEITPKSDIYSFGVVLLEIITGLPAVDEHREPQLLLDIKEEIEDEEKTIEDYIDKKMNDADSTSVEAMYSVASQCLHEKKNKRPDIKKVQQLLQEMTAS
row,SMILES,IC50 [µM]
1,"CC(C)n1nc(NCC2CCNCC2)c2cnn3cc(-c4cccnc4)cc3c21 [Example 1, 1-isopropyl-N-(piperidin-4-ylmethyl)-8-(pyridin-3-yl)-1H-pyrazolo[3,4-d]pyrrolo[1,2-b] pyridazin-3-amine]",0.896
2,"COC(=O)N1CCC(CNc2nn(C(C)C)c3c2cnn2cc(-c4cccnc4)cc32)CC1 [Example 2, methyl 4-(((1-isopropyl-8-(pyridin-3-yl)-1H-pyrazolo[3,4-d]pyrrolo[1,2-b]pyridazin-3-yl)amino)methyl)piperidine-1-carboxylate]",1
3,"COC(=O)N1CCC(CNc2nn(C(C)C)c3c2cnn2cc(-c4ccncc4)cc32)CC1 [Example 4, methyl 4-(((1-isopropyl-8-(pyridin-4-yl)-1H-pyrazolo[3,4-d]pyrrolo[1,2-b]pyridazin-3-yl)amino)methyl)piperidine-1-carboxylate]",0.232
4,"COC(=O)NC1CCC(Nc2nn(C(C)C)c3c2cnn2cc(-c4cccnc4)cc32)CC1 (stereo not drawn) [Example 6, methyl (4-((1-isopropyl-8-(pyridin-3-yl)-1H-pyrazolo[3,4-d]pyrrolo[1,2-b]pyridazin-3-yl)amino)cyclohexyl)carbamate]",0.696

# Other lines, results leading:
row,IC50 [µM],SMILES
1,0.211,"CC(C)n1nc(NCC2CCNCC2)c2cnn3cc(-c4ccncc4)cc3c21 [Example 3, 1-isopropyl-N-(piperidin-4-ylmethyl)-8-(pyridin-4-yl)-1H-pyrazolo[3,4-d] pyrrolo[1,2-b]pyridazin-3-amine]"
2,0.143,"CC(C)n1nc(NCC2CCN(C)CC2)c2cnn3cc(-c4ccncc4)cc3c21 [Example 5, 1-isopropyl-N-((1-methylpiperidin-4-yl)methyl)-8-(pyridin-4-yl)-1H-pyrazolo[3,4-d] pyrrolo[1,2-b]pyridazin-3-amine]"
3,0.181,"COC(=O)NC1CCC(Nc2nn(C(C)C)c3c2cnn2cc(-c4ccncc4)cc32)CC1 (stereo not drawn) [Example 7, methyl (4-((1-isopropyl-8-(pyridin-4-yl)-1H-pyrazolo[3,4-d]pyrrolo[1,2-b]pyridazin-3-yl)amino)cyclohexyl)carbamate]"
4,0.139,"CC(=O)N1CCC(Nc2nn(C(C)C)c3c2cnn2cc(-c4ccncc4)cc32)CC1 [Example 8, 1-(4-((1-isopropyl-8-(pyridin-4-yl)-1H-pyrazolo[3,4-d]pyrrolo[1,2-b]pyridazin-3-yl)amino)piperidin-1-yl)ethan-1-one]"
5,0.756,"CC(C)n1nc(NC2CCNCC2)c2cnn3cc(-c4ccncc4)cc3c21 [Example 9, 1-isopropyl-N-(piperidin-4-yl)-8-(pyridin-4-yl)-1H-pyrazolo[3,4-d]pyrrolo[1,2-b] pyridazin-3-amine]"
